The record followed here is patent publication US7105512B2, “Ophthalmic aqueous pharmaceutical preparation” (Wakamoto Pharmaceutical Co., Ltd., priority 1999, dated 2006).

Data set [1] can be described thus: Solubility of meloxicam in water near the neutral pH region. In kind it is physicochemical. As to conditions: at 25° C.
A short description of data set [2]: Comparison of solubility in water of meloxicam salts by UV analysis.
Where [3] appears, read: pH of the saturated aqueous solution (SAS).
Setting [4] is: pH of the aqueous solution at the concentration of the same line, below saturation.

Where “and” joins values, the source holds several entries; their conditions need not be identical. Equal values may be shown once. Where a name gives a salt, the structure may show the parent alone.

For `Cc1cnc(NC(=O)C2=C(O)c3ccccc3S(=O)(=O)N2C)s1` [meloxicam], the “solubility of meloxicam in water, saturated concentration” value in data set [1] is “about 0.2 mg/100 mL”.

Consider `Cc1cnc(NC(=O)C2=C([O-])c3ccccc3S(=O)(=O)N2C)s1.[Na+]` [Sodium Salt, Sodium salt of meloxicam], for which, in data set [2] (setting [3]), the pH was 8.06.

For the compound `Cc1cnc(NC(=O)C2=C(O)c3ccccc3S(=O)(=O)N2C)s1` [Trometamol Salt, trometamol salt of meloxicam], the pH is 7.52 and 7.71 in data set [2] (setting [4]); 7.93 in data set [2] (setting [3]).

For the compound `CNC[C@H](O)[C@@H](O)[C@H](O)[C@H](O)CO.Cc1cnc(NC(=O)C2=C(O)c3ccccc3S(=O)(=O)N2C)s1` [Meglumine Salt, meglumine salt of meloxicam], the pH in data set [2] (setting [4]) was 8.57 and 8.64 and 8.73; in data set [2] (setting [3]) it was 9.02.
